Test results reported in patent publication EP4707275A1, “NOVEL COMPOUND COMPRISING N-METHYLPIPERAZINE ETHANOL CARBAMATE STRUCTURE AND USE THEREOF” (Korea Institute of Radiological & Medical Sciences, priority 2023, dated 2024).

Legend:
[1] = system: radiation-induced pulmonary fibrosis; assay: Inhibitory effect on radiation-induced pulmonary fibrosis in mice (Micro-CT, H&E and Masson's Trichrome staining); type: in vivo, C57BL/6 mice; settings: 2 weeks after radiation exposure (SBRT 90 Gy), oral, nintedanib 60 mg/kg once daily, vs untreated group
Description: One hour before stereotactic body radiation therapy (SBRT; 90 Gy, 4 mm collimator), DCTP and nintedanib, an FDA-approved drug known to inhibit pulmonary fibrosis, were orally administered to seven-week-old male C57BL/6 mice. The degree of pulmonary fibrosis and the inhibitory effect on radiation-induced lung injury were observed two weeks after radiation exposure. The DCTP drug was administered at a dose of 30 mg/kg, and nintedanib was administered once daily (o.d.) at a dose of 60 mg/kg. In addition, to analyze the degree of inflammatory response and the degree of fibrosis two weeks after radiation exposure, H&E staining and Masson's Trichrome staining were performed, and the results are shown in FIG. 5. One hour prior to stereotactic body radiation therapy (SBRT; 90 Gy, 4 mm collimator), PXDP and nintedanib, an FDA-approved drug known to inhibit pulmonary fibrosis, were orally administered to seven-week-old male C57BL/6 mice. The degree of pulmonary fibrosis and the inhibitory effect on radiation-induced lung injury were observed two weeks after radiation exposure. The PXDP drug was administered at a dose of 100 mg/kg, and nintedanib was administered once daily (o.d.) at a dose of 60 mg/kg. To analyze the degree of inflammatory response and the degree of fibrosis 2 weeks after radiation exposure, H&E staining and Masson's Trichrome staining were performed, and the results are shown in FIG. 11.

[2] = system: idiopathic pulmonary fibrosis induced by bleomycin; assay: Inhibitory effect on idiopathic pulmonary fibrosis induced by bleomycin in mice (Micro-CT, H&E and Masson's Trichrome staining, survival); type: in vivo, C57BL/6 mice; settings: oral once daily for two weeks from day 14, nintedanib 60 mg/kg, vs untreated group; for degree of fibrosis (Micro-CT imaging): 4 weeks after bleomycin 1.5 U/kg; for degree of inflammation and fibrosis (H&E and Masson's Trichrome staining) / survival rate: bleomycin 1.5 U/kg; for survival rate: Example 5, FIG. 9
Description: Each drug was administered starting 14 days after the administration of bleomycin. The drug was orally administered at a dose of 20 mg/kg once daily for two weeks (a total of 13 administrations). The control drug, nintedanib, was administered at a dose of 60 mg/kg, and the co-administration group was orally administered nintedanib (60 mg/kg) together with DCTP (20 mg/kg) once daily for two weeks (a total of 13 administrations).
The results of H&E and Masson's Trichrome staining performed to evaluate the degree of inflammation and fibrosis are shown in FIG. 3.
Each drug was administered starting 14 days after the administration of bleomycin. Nintedanib and PXDP were each orally administered at a dose of 60 mg/kg once daily for two weeks (a total of 13 administrations), and the group treated with the combination was orally administered nintedanib (60 mg/kg) together with PXDP (60 mg/kg) once daily for two weeks (a total of 13 administrations).
The results of H&E and Masson's Trichrome staining performed to evaluate the degree of inflammation and fibrosis are shown in FIG. 8.
In addition, the mouse survival rate was compared in FIG. 9.

[3] = Example 3, FIG. 5, DCTP 30 mg/kg
[4] = Example 6, FIG. 10, PXDP 100 mg/kg
[5] = Example 6, FIG. 11, PXDP 100 mg/kg
[6] = Example 5, FIG. 7, PXDP 60 mg/kg
[7] = Example 5, FIG. 8, PXDP 60 mg/kg

| Structure (SMILES) | degree of inflammation and degree of fibrosis (H&E and Masson's Trichrome staining) [1, 3] | degree of fibrosis (Micro-CT imaging) [1, 4] | degree of fibrosis (Micro-CT imaging) ([1]; Example 6, FIG. 10, PXDP 100 mg/kg, listed as PXPD) | degree of inflammation and degree of fibrosis (H&E and Masson's Trichrome staining) [1, 5] | degree of fibrosis (Micro-CT imaging) [2, 6] | degree of inflammation and fibrosis (H&E and Masson's Trichrome staining) [2, 7] | survival rate ([2]; PXDP 60 mg/kg) | degree of fibrosis (Micro-CT imaging) ([1]; Example 3, FIG. 4, DCTP 30 mg/kg) | degree of fibrosis (Micro-CT imaging) ([2]; Example 2, FIG. 2, DCTP 20 mg/kg) | degree of inflammation and fibrosis (H&E and Masson's Trichrome staining) ([2]; Example 2, FIG. 3, DCTP 20 mg/kg) |
| --- | --- | --- | --- | --- | --- | --- | --- | --- | --- | --- |
| COc1cc2ncnc(N(C(=O)OCCN3CCN(C)CC3)c3ccc(F)c(Cl)c3)c2cc1NC(=O)/C=C/CN1CCCCC1 [DCTP, 2-(4-methylpiperazin-1-yl)ethyl (E)-(3-chloro-4-fluorophenyl)(7-methoxy-6-(4-(piperidin-1-yl)but-2-enamido)quinazolin-4-yl)carbamate] | reduction in fibrosis and inflammation in the lungs |  |  |  |  |  |  |  |  |  |
| CN1CCN(CCOC(=O)N(Cc2ccc(C(F)(F)F)nc2)c2ccc(Cc3c[nH]c4ncc(Cl)cc34)cn2)CC1 [PXDP, 2-(4-methylpiperazin-1-yl)ethyl (5-((5-chloro-1H-pyrrolo[2,3-b]pyridin-3-yl)methyl)pyridin-2-yl)((6-(trifluoromethyl)pyridin-3-yl)methyl)carbamate] |  | reduction in the degree of fibrosis | superior to that of nintedanib | alleviation of fibrosis and inflammation in the lungs | reduction in the degree of fibrosis | alleviation of pulmonary fibrosis and inflammation | survival rate increased |  |  |  |
| COC(=O)c1ccc2c(c1)NC(=O)/C2=C(\Nc1ccc(N(C)C(=O)CN2CCN(C)CC2)cc1)c1ccccc1 [nintedanib] | reduction in fibrosis and inflammation in the lungs | reduction in the degree of fibrosis |  | alleviation of fibrosis and inflammation in the lungs | reduction in the degree of fibrosis | alleviation of pulmonary fibrosis and inflammation | survival rate increased | reduction in the degree of fibrosis | reduction in the degree of fibrosis | alleviation of pulmonary fibrosis and inflammation |
